Earlier results as cited in patent publication US20130309220A1, “COMPOSITIONS FOR TREATING MICROBIAL INFECTIONS” (priority 2012, published 2013).

Structure (SMILES): CCC(=O)O[C@]1(C(=O)SCF)[C@H](C)C[C@H]2[C@@H]3C[C@H](F)C4=CC(=O)C=C[C@]4(C)[C@@]3(F)[C@@H](O)C[C@@]21C [Fluticasone propionate, S-(fluromethyl)6α,9-difluoro-11β-17-dihydroxy-16α-methyl-3-oxoandrosta-1,4-diene-17β-carbothioate,17-propionate]
- solubility in 95% ethanol (95% ethanol): slightly soluble
- solubility in dimethyl sulfoxide (dimethyl sulfoxide): freely soluble
- solubility in dimethylformamide (dimethylformamide): freely soluble
- solubility in methanol (methanol): slightly soluble
- solubility in water (water): practically insoluble
